Results taken from patent publication US20250388569A1, “HETEROCYCLIC COMPOUND FOR INHIBITING AND/OR INDUCING DEGRADATION OF KRAS PROTEIN” (ASTELLAS PHARMA INC., priority 2022, published 2025).
pIC50: −log10 of the molar value.

How the values were obtained:
KRAS G12D = molecular target: T1, KRAS G12D (Homo sapiens, UniProt P01116, G12D); assay: Evaluation of KRAS degradation activity on AsPC-1 by Cell ELISA (Test Example 1); format: cell-based; conditions: degradation rate of KRAS G12D at 1 μM in AsPC-1 cells, cultured overnight, corrected with β-actin
T1 construct: host or cells: AsPC-1 human pancreatic cancer cells
Procedure: Test Example 1: Evaluation of KRAS Degradation Activity on Human G12D Mutant KRAS-Positive Pancreatic Cancer Line AsPC-1 (CRL-1682; ATCC)
The KRAS degradation activity of test compounds was evaluated by measuring the expression levels of KRAS G12D by Cell ELISA.
AsPC-1 cells were seeded at 20 μL per well on 384-well plates (from Greiner bio-one) to give 2.0×10^4 cells per well. As for the cell culture conditions, RPMI 1640 (from Sigma-Aldrich) medium containing 10% fetal bovine serum (from Cytiva) was used in the presence of 5% CO2 at 37° C.
The next day, the test compounds (10 points having final concentrations in the range of 10 μM to 0.3 nM) and DMSO (from FUJIFILM Wako Pure Chemical Corporation), which was the solvent for the test compounds, as a negative control were diluted 500-fold with a fresh medium and were added at 20 μL per well. The cells were cultured overnight.
The next day, the culture supernatant was removed, and 4% paraformaldehyde phosphate buffer (from FUJIFILM Wako Pure Chemical Corporation) was added at 20 μL per well. The plates were allowed to stand for 30 minutes at room temperature to thus immobilize the cells. Then, the supernatant was removed, and 0.1% Triton X-100 (from Amersham Biosciences)-containing Phosphate buffered saline (PBS; from FUJIFILM Wako Pure Chemical Corporation) was added at 20 μL per well. After allowing to stand for 10 minutes at room temperature, the supernatant was removed. PBS was added at 25 μL per well, and the supernatant was removed to thus wash each well. The washing was performed twice in total. Next, the supernatant was removed, and 0.5% sodium dodecyl sulfate (SDS; from Invitrogen)-containing PBS was added at 20 μL per well. After allowing to stand at room temperature for 10 minutes, the supernatant was removed by a centrifugal operation (using a centrifugal dehydrator machine, the supernatant was removed by the same method hereinafter). PBS was added at 25 μL per well, and the supernatant was removed to thus wash each well. The washing was performed twice in total. The supernatant was removed, and blocking solution (Intercept Blocking Buffer; from Li-COR Biosciences) was added at 20 μL per well. After allowing to stand for 30 minutes at room temperature, the supernatant was removed, and a solution obtained by diluting anti-β-actin antibody (Anti-beta Actin antibody [mAbcam 8226]-Loading Control; from abcam) 1,000-fold with blocking solution and a solution obtained by diluting anti-Ras (G12D Mutant Specific) antibody (Ras (G12D Mutant Specific) (D8H7) Rabbit mAb #14429; from Cell Signaling Technology) and anti-β-actin antibody (from abcam) 1,000-fold with blocking solution were respectively added to positive control wells and the other wells at 15 μL per well as a primary antibody. The plates were allowed to stand overnight at 4° C.
The next day, the supernatant was removed. PBS was added at 25 μL per well, and the supernatant was removed to thus wash each well. The washing was performed twice in total. The supernatant was removed, and a solution obtained by diluting Donkey anti-Mouse IgG H&L (IRDye 680RD) (from Li-COR Biosciences) and Goat anti-Rabbit IgG H&L (IRDye 800CW) (from Li-COR Biosciences) 1,000-fold with blocking solution was added at 15 μL per well as a secondary antibody. After allowing to stand for 1 hour at room temperature, the supernatant was removed. PBS was added at 25 μL per well, and the supernatant was removed to thus wash each well. The washing was performed twice in total. After removing the supernatant, the plates were dried with air at room temperature for 2 hours or more, and the 700 nm and 800 nm fluorescent signals were measured with Aerius (from Li-COR Biosciences). […]

[1] = test system: human G12D mutant KRAS-positive pancreatic cancer line AsPC-1; assay: Non-anchorage-dependent cell growth inhibitory effect, spheroid 3D cell culture (Test Example 2); format: cell-based; conditions: AsPC-1 spheroid 3D culture, 6 days, CellTiter Glo 2.0
Procedure: Test Example 2: Evaluation of Non-Anchorage-Dependent Cell Growth Inhibitory Effect on Human G12D Mutant KRAS-Positive Pancreatic Cancer Line AsPC-1
The non-anchorage-dependent cell growth inhibitory effect of test compounds was evaluated by spheroid 3D cell culture.
AsPC-1 cells were seeded on low-cell-adhesive round bottom 384-well plates (PrimeSurface: from Sumitomo Bakelite) at 36 μL/well to give 5×10^2 cells per well. As for the cell culture conditions, RPMI 1640 medium containing 10% fetal bovine serum was used in the presence of 5% CO2 at 37° C.
The next day, the test compounds (6 points having final concentrations in the range of 10 μM to 30 nM) and DMSO, which was the solvent for the test compounds, as a negative control were diluted 100-fold with a fresh medium and were added at 4 μL per well. After culturing in the presence of 5% CO2 at 37° C. for 6 days, CellTiter Glo 2.0 (from Promega) was added at 20 μL per well. After stirring with a plate mixer (from FINEPCR) at normal temperature for 1 hour, the luminescent signals were measured with ARVO X3 (from PerkinElmer).
With the signaling value in treatment with DMSO taken as 100% and with the signaling value in the medium alone without cells taken as 0%, the 50% inhibitory concentration values (IC50) were calculated by Sigmoid-Emax nonlinear regression analysis.

Compound	% degradation (KRAS G12D)	pIC50 ([1]; Homo sapiens, ASPC1, 144 h)	pIC50 [1]
Cc1c(F)cc2[nH]ncc2c1-c1c(C2CC2)cc2c(N3C[C@@H]4C[C@H]3CN4)nc(OC3CCOCC3)nc2c1OCc1ccc(C(=O)N2CCN(C(=O)c3ccc4c(c3)CN(C(=O)c3cc(C(C)C)c(O)cc3O)C4)C[C@@H]2C)cc1 (atropisomer, axis not shown) [Example 2]	44%	5.72	–
Cc1c(F)cc2[nH]ncc2c1-c1c(C2CC2)cc2c(N3C[C@@H]4C[C@H]3CN4)nc(OC3CCOCC3)nc2c1OCc1ccc(C(=O)N2CCN(C(=O)c3ccc4c(c3)CN(C(=O)c3cc(C(C)C)c(O)cc3O)C4)C[C@H]2C)cc1 (atropisomer, axis not shown) [Example 3]	46%	5.55	–
Cc1c(F)cc2[nH]ncc2c1-c1c(C2CC2)cc2c(N3C[C@@H]4C[C@H]3CN4)nc(OC3CCOCC3)nc2c1OCc1ccc(C(=O)N2C[C@H]3CN(Cc4ccc5c(c4)CN(C(=O)c4cc(C(C)C)c(O)cc4O)C5)C[C@H]3C2)cc1 (atropisomer, axis not shown) [Example 4]	15%	5.29	–
Cc1c(F)cc2[nH]ncc2c1-c1c(C2CC2)cc2c(N3C[C@@H]4C[C@H]3CN4)nc(OC3CCOCC3)nc2c1OCc1ccc(C(=O)N2CCN(Cc3ccc4c(c3)CN(C(=O)c3cc(C(C)C)c(O)cc3O)C4)CC2)cc1 (atropisomer, axis not shown) [Example 6]	25%	5.44	–
Cc1c(F)cc2[nH]ncc2c1-c1c(C2CC2)cc2c(N3C[C@@H]4C[C@H]3CN4)nc(OC3CCOCC3)nc2c1OCc1ccc(C(=O)N2CCCN(Cc3ccc4c(c3)CN(C(=O)c3cc(C(C)C)c(O)cc3O)C4)CC2)cc1 (atropisomer, axis not shown) [Example 7]	20%	–	–
Cc1c(F)cc2[nH]ncc2c1-c1c(C2CC2)cc2c(N3C[C@@H]4C[C@H]3CN4)nc(OC3CCOCC3)nc2c1OCc1ccc(C(=O)N2CCC3(CC2)CN(Cc2ccc4c(c2)CN(C(=O)c2cc(C(C)C)c(O)cc2O)C4)C3)cc1 (atropisomer, axis not shown) [Example 10]	37%	5.43	–
Cc1c(F)cc2[nH]ncc2c1-c1c(C2CC2)cc2c(N3C[C@@H]4C[C@H]3CN4)nc(OC3CCOCC3)nc2c1OCc1ccc(C(=O)N2CCN(C3CCN(Cc4ccc5c(c4)CN(C(=O)c4cc(C(C)C)c(O)cc4O)C5)CC3)CC2)cc1 (atropisomer, axis not shown) [Example 11]	51%	5.54	–
Cc1c(F)cc2[nH]ncc2c1-c1c(C2CC2)cc2c(N3C[C@@H]4C[C@H]3CN4)nc(OC3CCOCC3)nc2c1OCc1ccc(C(=O)N2CCN(CC3CN(Cc4ccc5c(c4)CN(C(=O)c4cc(C(C)C)c(O)cc4O)C5)C3)CC2)cc1 (atropisomer, axis not shown) [Example 12]	20%	5.46	–
CO[C@@H](O)COc1nc(N(C)[C@H]2CCNC2)c2cc(C3CC3)c(-c3c(C)c(F)cc4[nH]ncc34)c(OCc3ccc(C(=O)N4CCN(C(=O)c5ccc6c(c5)CN(C(=O)c5cc(C(C)C)c(O)cc5O)C6)C[C@@H]4C)cc3)c2n1 (atropisomer, axis not shown) [Example 13]	57%	5.70	–
Cc1c(F)cc2[nH]ncc2c1-c1c(C2CC2)cc2c(N3C[C@@H]4C[C@H]3CN4)nc(OC3CCOCC3)nc2c1OCc1ccc(CN2CCN(C(=O)c3ccc4c(c3)CN(C(=O)c3cc(C(C)C)c(O)cc3O)C4)CC2)cc1 (atropisomer, axis not shown) [Example 15]	17%	5.41	–
Cc1c(F)cc2[nH]ncc2c1-c1c(C2CC2)cc2c(N3C[C@@H]4C[C@H]3CN4)nc(OC3CCOCC3)nc2c1OCc1ccc(C(=O)N2CCN(CCCOc3ncc4c(n3)CCN(C(=O)c3cc(C(C)C)c(O)cc3O)C4)CC2)cc1 (atropisomer, axis not shown) [Example 19]	–	5.64	–
Cc1c(F)cc2[nH]ncc2c1-c1c(C2CC2)cc2c(N3C[C@@H]4C[C@H]3CN4)nc(OC3CCOCC3)nc2c1OCc1ccc(C(=O)N2CCN(C(=O)c3ccc4c(c3)CN(C(=O)c3cc(C(C)C)c(O)cc3O)C4)CC2)cc1 (atropisomer, axis not shown; (M)) [Example 1, [5-(4-{4-[({(7M)-6-cyclopropyl-4-[(1S,4S)-2,5-diazabicyclo[2.2.1]heptan-2-yl]-7-(6-fluoro-5-methyl-1H-indazol-4-yl)-2-[(oxan-4-yl)oxy]quinazolin-8-yl}oxy)methyl]benzoyl)piperazine-1-carbonyl)-1,3-dihydro-2H-isoindol-2-yl][2,4-dihydroxy-5-(propan-2-yl)phenyl]methanone]	43%	5.48	–
Cc1c(F)cc2[nH]ncc2c1-c1c(C2CC2)cc2c(N3C[C@@H]4C[C@H]3CN4)nc(OC3CCOCC3)nc2c1OCc1ccc(C(=O)N2C3CCC2CN(Cc2ccc4c(c2)CN(C(=O)c2cc(C(C)C)c(O)cc2O)C4)C3)cc1 [Example 9]	–	5.47	–
CO[C@@H](C)COc1cc(O[C@H]2CCNC2)c2cc(C3CC3)c(-c3c(C)c(F)cc4[nH]ncc34)c(OCc3ccc(C(=O)N4CCN(C(=O)c5ccc6c(c5)CN(C(=O)c5cc(C(C)C)c(O)cc5O)C6)C[C@@H]4C)cc3)c2n1 [Example 16]	30%	–	–
Cc1c(F)cc2[nH]ncc2c1-c1c(C2CC2)cc2c(N3C[C@@H]4C[C@H]3CN4)nc(OC3CCOCC3)nc2c1OCc1ccc(C(=O)N2CCN(C(C)C(=O)c3ccc4c(c3)CN(C(=O)c3cc(C(C)C)c(O)cc3O)C4)CC2)cc1 (stereo partly shown) [Example 18]	20%	5.13	–
{4-[({(7M)-6-cyclopropyl-4-[(1S,4S)-2,5-diazabicyclo[2.2.1]heptan-2-yl]-7-(6-fluoro-5-methyl-1H-indazol-4-yl)-2-[(oxan-4-yl)oxy]quinazolin-8-yl}oxy)methyl]phenyl) {4-[(4-{3-[2,4-dihydroxy-5-(propan-2-yl)phenyl]-5-hydroxy-4H-1,2,4-triazol-4-yl)phenyl)methyl]piperazin-1-yl}methanone [Example 5]	46%	–	5.66
